According to US20110130346A1, “PEPTIDE CONJUGATES FOR DELVERY OF BIOLOGICALLY ACTIVE COMPOUNDS” (ISIS INNOVATION LIMITED, priority 2008, published 2011):

Key:
[1] = tested on: exon and intron 23 of the dystrophin gene; test: Example 3: intramuscular injection of glucose-formulated AOs, dystrophin-positive myofibres by immunohistochemistry; type: in vivo; settings: intramuscular into TA, 8 week old mdx mice, two weeks
Protocol: Here we study a novel delivery glucose formulation by evaluating it via local intramuscular injection into the mdx mouse tibialis anterior (TA) muscle. Initial experiments were performed in 6-8 week old mdx mice (referred to as 8 weeks) by treatment with a single dose of 5 ug of 2′OMePS AO formulated in 5% glucose. In a parallel control study, age-matched control mdx mice were treated with the same AO dose formulated in standard saline buffer.
For intramuscular studies the TA muscle of each experimental mdx mouse was injected with a 40 μl dose of PNA and PNA-peptide conjugates with saline at a final concentration of 125 μg/ml, and the contralateral muscle was injected with saline. […]
Sections of 8 μm were cut from at least two-thirds of the muscle length of TA, quadriceps, gastrocnemius, biceps, abdominal wall and diaphragm muscles and cardiac muscle at 100 μm intervals. […] The maximum number of dystrophin-positive fibres in one section was counted using the Zeiss AxioVision fluorescence microscope. […] Polyclonal antibodies were detected by goat-anti-rabbit IgGs Alexa Fluro 594 (Molecular Probe, UK). […] Polyclonal antibodies were detected by goat-anti-rabbit IgGs Alexa 594 and the monoclonal antibodies by goat-anti-mouse IgGs Alexa 594 (Molecular Probe, UK). […]

[2] = tested on: exon and intron 23 of the dystrophin gene; test: Example 2: intramuscular injection, Western blot of dystrophin; type: in vivo, mdx mice; settings: 5 ug intramuscular
Protocol: (§1) For intramuscular studies the TA muscle of each experimental mdx mouse was injected with a […] dose of PNA and PNA-peptide conjugates with saline at a final concentration of 125 μg/ml. For systemic intravenous injections, Various amount of PNA or PNA-peptide conjugates in 80 μl saline buffer were injected into tail vein of mdx mice at the final dose of 25 mg/kg, 50 mg/kg and 100 mg/kg, respectively. The animals were killed at various time points after injection by CO2 inhalation and tissues were removed and snap-frozen in liquid nitrogen-cooled isopentane and stored at −80° C.
The collected sections were placed in a 1.5 ml polypropylene eppendorf tube (Anachem, UK) on dry ice. The tissue sections were lysed with 150 μl protein extraction buffer containing 125 mmol/l Tris-HCl (pH=6.8), 10% sodium dodecyl sulphate, 2 mol/l urea, 20% glycerol, and 5% 2-mercaptoethanol. […] The supernatant was collected and the protein concentration was quantified by Bradford assay (Sigma, UK). […] The bound primary antibody was detected by horseradish peroxidise-conjugated rabbit anti-mouse IgGs and the ECL Western Blotting Analysis system (Amersham Pharmacia Biosciences, UK). The intensity of the bands obtained from treated mdx muscles was measured by Image J software; the quantification is based on band intensity and area, and is compared with that from normal muscles of C57BL6 mice.

H2K mdx cells = test: WST-1 cell viability assay in H2K mdx cells; type: cell-based, mouse; settings: 2.5 μM to 25 μM, 12 hours
Protocol: The possible toxicity of the PNA-peptide conjugates in H2K mdx cells was examined using a WST-1 assay, which measures the metabolic activity of viable cells. Cells were grown in 96-well microplates overnight and treated with unmodified PNA as a control or PNA-peptide conjugates for 12 hours, and then incubated with WST-1 for approximately 4 hours. During this incubation period, viable cells convert WST-1 to a water-soluble formazan dye which is then quantified using an ELISA plate reader.

[3] = tested on: exon and intron 23 of the dystrophin gene; test: Example 2: intramuscular injection, nested RT-PCR of exon skipping; type: in vivo, mdx mice; settings: 5 ug intramuscular, 4 weeks after injection (peak)
Protocol: Total RNA was extracted from tested muscle tissues with Trizol (Invitrogen, UK) and 200 ng of RNA template was used for 20 μl RT-PCR with OneStep RT-PCR kit (Qiagen, UK). The primer sequences for the initial RT-PCR were Exon20Fo 5′-[…]-3′ and Ex26Ro 5′-[…]-3′ for amplification of messenger RNA from exons 20 to 26. The cycle conditions were 95° C. for 30 seconds, 55° C. for 1 minute and 72° C. for 2 minutes for 25 cycles. RT-PCR product (1 μl) was then used as the template for secondary PCR performed in […] with 0.5 U Taq DNA polymerase (Invitrogen, UK). The primer sequences for the second round were Ex20Fi 5′-[…]-3′ and Ex24Ri 5′-[…]-3. The cycle conditions were 95° C. for 1 minute, 57° C. for 1 minute, and 72° C. for 2 min for 25 cycles. The products were examined by electrophoresis on a 2% agarose gel.
as §1

5′-ggccaaaccteggcttacct-3′ [PNA]
dystrophin-positive myofibres, 5% glucose formulation compared with saline formulation [1]: significant improvement
level of dystrophin protein restored (Western blot) ([2]; 8 week time point): about 20 % of normal levels
dystrophin protein (Western blot) ([2]; 20 weeks post administration): considerably reduced levels
Toxicity or inhibition of cell proliferation (WST-1) (H2K mdx cells): not observed
targeted dystrophin transcripts showing splice correction (RT-PCR) [3]: about 50%
